Several values for one entry are separate records, joined by “and”; a condition that tells them apart may be missing. Equal values may be shown once.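 48-hour exposure; five concentrations; linearly interpolated endpoints. GI50 = concentration required for 50% inhibition of growth. The concentration for full growth arrest is given as TGI.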
Assays:
Assay in all cases: NCI anticancer screen, dose series, 48 h
MCF7 breast = tested on: MCF7 breast
RXF 393 renal = tested on: RXF 393 renal
SNB-19 CNS = tested on: SNB-19 CNS
EKVX NSCLC = tested on: EKVX NSCLC
IGROV1 ovarian = tested on: IGROV1 ovarian
HT29 colon = tested on: HT29 colon
SF-295 CNS = tested on: SF-295 CNS
OVCAR-4 ovarian = tested on: OVCAR-4 ovarian
MDA-MB-231 breast = tested on: MDA-MB-231 breast
HL-60(TB) leukemia = tested on: HL-60(TB) leukemia

| SMILES | GI50 (MCF7 breast) | TGI (MCF7 breast) | GI50 (RXF 393 renal) | TGI (RXF 393 renal) | GI50 (SNB-19 CNS) | TGI (SNB-19 CNS) | GI50 (EKVX NSCLC) | TGI (EKVX NSCLC) | GI50 (IGROV1 ovarian) | TGI (IGROV1 ovarian) | GI50 (HT29 colon) | TGI (HT29 colon) | GI50 (SF-295 CNS) | TGI (SF-295 CNS) | GI50 (OVCAR-4 ovarian) | TGI (OVCAR-4 ovarian) | GI50 (MDA-MB-231 breast) | TGI (MDA-MB-231 breast) | GI50 (HL-60(TB) leukemia) | TGI (HL-60(TB) leukemia) |
| --- | --- | --- | --- | --- | --- | --- | --- | --- | --- | --- | --- | --- | --- | --- | --- | --- | --- | --- | --- | --- |
| O=[N+]([O-])c1c(Br)sc(Br)c1[N+](=O)[O-] | 2.2 µM | 7.65 µM | 1.47 µM | 2.85 µM | 13.4 µM | 27.9 µM | 9.3 µM | 23.8 µM | 1.98 µM | 5.38 µM | 1.7 µM | 3.47 µM | 14.2 µM | 28.6 µM | 1.85 µM | 3.62 µM | 2.32 µM | 6.19 µM | 2.4 µM | 6.65 µM |
| CCNC(=O)c1cc2c(-c3cc(C(C)(C)O)ccc3Oc3c(C)cc(F)cc3C)cn(C)c(=O)c2[nH]1 | 0.521 µM | 12.9 µM | 1.81 µM | 5.2 µM | 2.05 µM | 14.2 µM | 2.26 µM | 16.4 µM | 1.39 µM | 11.2 µM | 1.12 µM | 15 µM | 2.19 µM | 11 µM | 1.84 µM | 16.6 µM | 1.08 µM | 15.9 µM | 0.393 µM | 4.88 µM |
| Nc1nc(-c2ccc(F)cc2)c(-c2ccc3ncccc3n2)s1 | 9 µM | > 25 µM | 12.3 µM | > 25 µM | > 25 µM | > 25 µM | 11.2 µM | > 25 µM | 5.44 µM | > 20.9 µM | 16.3 µM | > 25 µM | > 21 µM | > 25 µM | 16.6 µM | > 25 µM | > 25 µM | > 25 µM | > 25 µM | > 25 µM |
| CN(CC(=O)N(Cc1ccc(C2CCCCC2)cc1)c1ccc(C(=O)O)c(O)c1)S(=O)(=O)c1c(F)c(F)c(F)c(F)c1F | 3.56 µM | 15.1 µM | 1.89 µM | 3.76 µM | 11.3 µM | 25.1 µM | 15.7 µM | 29.8 µM | 1.85 µM | 4.08 µM | 2.05 µM | 4.2 µM | 17.4 µM | 37.2 µM | 14 µM | 27.8 µM | 1.86 µM | 4.13 µM | 2.18 µM | 5.82 µM |
| CN(C)c1ccc(Nc2cc(-c3cccc(OC(F)(F)F)c3)nc3ccc(N4CCCC4)cc23)cc1 | 1.86 µM | 4.61 µM | 1.66 µM | 3.47 µM | 3.32 µM | 13.7 µM | 2.16 µM | 6.05 µM | 1.56 µM | 3.06 µM | 2.18 µM | 4.59 µM | 1.83 µM | 3.57 µM | 1.98 µM | 3.77 µM | 1.76 µM | 3.23 µM | – | – |
| COc1ccc(-c2nc3ccccn3c2/C=C/C(=O)c2cc(OC)c(OC)c(OC)c2)cc1 | 2.38 µM | 21.4 µM | 2.94 µM | > 100 µM | 25.2 µM | > 100 µM | 7.42 µM | > 100 µM | 8.86 µM | > 100 µM | 4.8 µM | 32.4 µM | 15.2 µM | 69.5 µM | 5.72 µM | > 100 µM | 5.22 µM | > 100 µM | 34 µM | > 100 µM |
| COc1ccc(OC)c(/C=C(/C)[N+](=O)[O-])c1 | 0.832 µM | 2.21 µM | 1.72 µM | 3.18 µM | 9.52 µM | 23.3 µM | 2.76 µM | 11.5 µM | 2.97 µM | 8.39 µM | 2.56 µM | 5.2 µM | 11.2 µM | 24.8 µM | 1.98 µM | 3.5 µM | 2.71 µM | 7.45 µM | – | – |
| NC(=O)c1ccc2nc(-c3ccc(Oc4ccc(Cl)cc4)cc3)[nH]c2c1 | 33.1 µM and 6.4 µM | 75 µM and 23.9 µM | 48.9 µM and 14.9 µM | 75 µM and 30.2 µM | > 75 µM and 22.5 µM | > 75 µM and 52.6 µM | > 75 µM | > 75 µM | 30.9 µM and 15.9 µM | 75 µM and 36.2 µM | 21.6 µM and 12.3 µM | 75 µM and 28.1 µM | > 75 µM | > 75 µM | 41.7 µM and 11.4 µM | 75 µM and 31.1 µM | > 75 µM and 18.8 µM | > 75 µM and 36.3 µM | 12.4 µM and 17.3 µM | 58.7 µM and 41.2 µM |
| c1csc(-c2cc(-c3cccs3)c(-c3cccs3)s2)c1 | – | 66.8 µM | – | > 100 µM | – | > 100 µM | – | > 100 µM | – | > 100 µM | – | > 100 µM | – | > 100 µM | – | > 100 µM | – | > 100 µM | – | – |
| C[C@@H](CO)[C@@H]1CCC=C2CC[C@]3(C)[C@H](CC[C@@H]4[C@@]5(C)CCCNC(C)(C)[C@@H]5CC[C@]43C)[C@H]21 | 1.49 µM | 3.02 µM | 2.39 µM | 6.25 µM | 2.03 µM | 4.15 µM | 4.18 µM | 17.3 µM | 1.78 µM | 3.41 µM | 1.85 µM | 4.49 µM | 1.66 µM | 3.11 µM | 1.98 µM | 5.02 µM | 1.94 µM | 4.03 µM | 1.98 µM | 4.54 µM |

— PubChem BioAssay (NCI)
